Laboratory results: patent publication US12295973B2 (Fred Hutchinson Cancer Center, priority 2017, dated 2025)
Where a SMILES comes first, the peptide text is derived from it. [ ]: non-standard residue; d: D form. The star is where a group is joined. dPhe(4-NHCONH2) = NC(=O)Nc1ccc(C[C@@H](N)C(=O)O)cc1; Dihydroorotyl(S) = O=C1C[C@@H](C(=O)*)NC(=O)N1; dPhe(4-Cl) = N[C@H](Cc1ccc(Cl)cc1)C(=O)O; Phe(4-NH2) = Nc1ccc(C[C@H](N)C(=O)O)cc1; d2Nal = N[C@H](Cc1ccc2ccccc2c1)C(=O)O; Lys(iPr) = CC(C)NCCCC[C@H](N)C(=O)O; d3Pal = N[C@H](Cc1cccnc1)C(=O)O

Experiments:
mice exposed to L-TBI = assay: Mouse survival after lethal total body irradiation (L-TBI, 840cGy); type: in vivo
Excerpt: Description. Inhibition of sex steroids, which can be achieved in a reversible fashion pharmacologically, is a well-described strategy to promote lymphopoiesis in the BM and thymus^8,7,14,15. Although the most common method of sex steroid ablation clinically has been to use LHRH-agonists, it was described that an LHRH-Antagonist represents a more rational approach to promote immediate ablation of sex steroids for immune regeneration as it is far more rapid and abrogates the initial surge in sex steroids that LHRH-Agonist cause^16. Taken together with the impact of sex steroid inhibition on HSC function and the rapid regenerative effects of LHRH-Ant, it was hypothesized that LHRH-Ant could represent a rational non-cellular medical countermeasure for mitigating radiation injury and promoting hematopoietic regeneration when administered after hematopoietic insult. […] It was then tested if LHRH-Ant could mediate even greater mouse survival when administered multiple times.
Methods. […] B6.SJL-Ptprca Pepcb/BoyJ (CD45.1) male mice (The Jackson Laboratory) were used between 7 and 12 weeks of age for transplant. Mice were irradiated with a Gammacell 40 Irradiator (Cs-137), with an average dose rate of 95 cGy/min, in a plexiglass mouse pie cage. To assess mouse survival after radiation, mice were monitored for up to 60 days after TBI. To adjust for differences in weight, identical mice were purchased from Jackson and cages randomly distributed over different groups. All animal protocols were approved by the Memorial Sloan Kettering Cancer Center Institutional Animal Care and Use Committee.
Reagents: Degarelix (as acetate), a LHRH-Ant (Firmagon), was resuspended in sterile water for injection and administered S.C. to mice at a dose of 40 mg/kg. To evaluate the radiomitigative effect of LHRH-Ant on survival, mice were treated subcutaneously (S.C.) with a single injection of the LHRH-Ant or a saline control solution (PBS). Degarelix was purchased from the Memorial Sloan-Kettering Cancer Center Pharmacy. […] MDV3100 (selleckchem) was resuspended in a mixture of 45% PBS, 45% PEG and 10% DMSO and administered daily to mice by oral gavage at a dose of 10 mg/kg. 5-FU (InvivoGen) was administered to mice intraperitoneally (I.P.) at a dose of 150 mg/kg once every 7 days consecutively for 3 times as previously described^34,47,49.

[1] = Hormone levels (testosterone, LH, FSH) after L-TBI; type: in vivo, mouse
LT-HSCs = assay: Cell cycle status of HSCs (Ki-67/DAPI) after L-TBI; type: in vivo, mouse; conditions: vs vehicle
Excerpt: The control of HSC self-renewal, differentiation, and proliferation is a tightly regulated process crucial for maintaining the HSC pool^29-34. This is particularly relevant during hematopoietic injuries (such as high dose or repeated rounds of chemotherapy or irradiation) when dormant HSCs transiently start to proliferate to replenish blood cells as unbalanced HSC proliferation can lead to stem cell exhaustion and long-term myelosuppression^35-37. […] Although there is a clear need for HSC proliferation to ensure regenerative hematopoiesis, previous reports have also shown that induction of HSC quiescence after high-dose irradiation correlates with increased hematopoietic recovery and enhanced mouse survival^35,37,41.
Flow cytometry and cell cycle analysis: Monoclonal antibodies recognizing the following markers were used for flow cytometric analyses and cell sorting of murine cells (LSR II or FACSAria III, BD Biosciences): (from BD Pharmingen) c-kit (2B8), Sca-1 (D7), CD11b (M1/70), CD11c (HL3), CD19 (ID3), CD3ϵ (145-2C11), CD34 (RAM34), CD45 (30-F11), CD45.1 (A20), CD45.2 (104), CD48 (HM48-1), CD62L (MEL-14), CD135 (A2F10.1), Gr-1 (RB6-8C5), NK1.1 (PK136), TER-119 (TER-119); (from eBioscience) CD127 (A7R34), CD150 (mShad150); (from Invitrogen) B220 (RA3-6B2) and streptavidin (N/A). […]

**Q.** For `CC(=O)N[C@H](Cc1ccc2ccccc2c1)C(=O)N[C@H](Cc1ccc(Cl)cc1)C(=O)N[C@H](Cc1cccnc1)C(=O)N[C@@H](CO)C(=O)N[C@@H](Cc1ccc(NC(=O)[C@@H]2CC(=O)NC(=O)N2)cc1)C(=O)N[C@H](Cc1ccc(NC(N)=O)cc1)C(=O)N[C@@H](CC(C)C)C(=O)N[C@@H](CCCCNC(C)C)C(=O)N1CCC[C@H]1C(=O)N[C@H](C)C(N)=O` [LHRH-Ant, Degarelix] (Ac-[d2Nal][dPhe(4-Cl)][d3Pal]S[Phe(4-NH2)](Dihydroorotyl(S))[dPhe(4-NHCONH2)]L[Lys(iPr)]P[dA]-NH2), which “survival after L-TBI” value (mice exposed to L-TBI; LHRH-Ant given 24 h after L-TBI, vs vehicle, male mice) is on record?
**A.** significant increase in survival

**Q.** What about the “survival after L-TBI” value (mice exposed to L-TBI; administered 48 h after L-TBI) of the same compound?
**A.** significantly enhanced mouse survival

**Q.** What about the “survival after L-TBI in female mice” value (mice exposed to L-TBI; female mice) of the same compound?
**A.** statistically significant benefit in survival

**Q.** And the “survival after L-TBI in surgically castrated mice” value (mice exposed to L-TBI; male mice castrated 5 days prior to TBI, simultaneous LHRH-Ant)?
**A.** restored the benefits in mouse survival

**Q.** And the “survival after L-TBI, multiple administrations” value (mice exposed to L-TBI; treatment 24 h and 15 days after L-TBI, vs single treatment)?
**A.** did not significantly enhance the survival benefit

**Q.** What about the level of testosterone ([1]; after radiation) of the same compound?
**A.** did not significantly lower the level of testosterone

**Q.** What about the “level of FSH” value ([1]; irradiated mice) of the same compound?
**A.** dramatically decreased

**Q.** And the “level of LH” value ([1]; irradiated mice)?
**A.** dramatically decreased

**Q.** And the “proliferative HSCs” value (LT-HSCs)?
**A.** fewer proliferative HSCs

**Q.** And the “proportion of Ki-67− quiescent LT-HSCs” value (LT-HSCs)?
**A.** significantly higher proportion
